Assay results from US20250084049A1, “POLYCATIONIC SALTS OF PHENOLIC COMPOUNDS AND USES THEREOF” (Firmenich Incorporated, priority 2021, published 2025).

Test: storage of the aqueous salt solution at room temperature under nitrogen
Assay type: physicochemical
Conditions: ~10% aqueous solution, stored for several days at room temperature under nitrogen
Method: Naringenin (500 mg, 1.84 mmol) was suspended in water (2 mL) and while stirring a solution of NaOH (2 equiv.) in water (3 mL) was added dropwise. After addition was complete, the reaction was bubbled with nitrogen and stirring continued until the solution became homogeneous. […] MS 273 (M+3H−2Na)^+.
Naringenin (500 mg, 1.84 mmol) was suspended in water (2 mL) and while stirring a solution of KOH (2 equiv.) in water (3 mL) was added dropwise. After addition was complete, the reaction was bubbled with nitrogen and stirring continued until the solution became homogeneous. […] MS 273 (M+3H−2K)^+.
Phloterin (500 mg, 1.82 mmol) was suspended in water (2 mL) and while stirring a solution of NaOH (2 equiv.) in water (3 mL) was added dropwise. After addition was complete, the reaction was bubbled with nitrogen and stirring continued until the solution became homogeneous. […] MS 275 (M+3H−2Na)^+.
Phloterin (500 mg, 1.82 mmol) was suspended in water (2 mL) and while stirring a solution of KOH (2 equiv.) in water (3 mL) was added dropwise. After addition was complete, the reaction was bubbled with nitrogen and stirring continued until the solution became homogeneous. […] MS 275 (M+3H−2K)^+.

| SMILES | stability of the solution on storage |
| --- | --- |
| O=C(CCc1ccc(O)cc1)c1c(O)cc(O)cc1O.[K].[K] [Example 4, Dipotassium Salt of Phloterin] | without any significant change |
| O=C(CCc1ccc(O)cc1)c1c(O)cc(O)cc1O.[Na].[Na] [Example 3, Disodium Salt of Phloterin] | without any significant change |
| O=C1C[C@@H](c2ccc(O)cc2)Oc2cc(O)cc(O)c21.[K].[K] [Example 2, Dipotassium Salt of Naringenin] | without any significant change |
| O=C1C[C@@H](c2ccc(O)cc2)Oc2cc(O)cc(O)c21.[Na].[Na] [Example 1, Disodium Salt of Naringenin] | without any significant change |
